The conditions of data set [1]: in vivo.
For data set [2], the system named is retinal neovascular clusters in OIR C57/B16 mice. Description: Retinal blood vessels in OIR mice. The format is in vivo, mouse. The conditions noted are these: for Neovascular clusters area: retina evaluated on day 17; for Inhibition rate: neovascular clusters area vs control, day 17. An excerpt:
Establishment of the OIR model: Exposure of young mouse and their mothers to 75% hyperoxic environment from day 7 to day 12 after birth of C57/B16 mice caused rapid disappearance of capillaries in the central retina. Upon returning to the indoor air on the 12th day, the retinal blood vessels, upon exposing to hyperoxia, rapidly disappeared, causing extensive abnormal neovascularization, and the central portion of the retina remained largely avascular for a long time. After the blood vessels disappeared completely, on the 13th day, physiological saline (negative control group), mPEG-SC-HM-1, mPEG2-NHS-HM-1, mPEG-ALD10k-HM-1, and mPEG-bALD-HM-1, were administered by intravitreal injection and retinal vessels were evaluated on day 17 (to label unclosed vessels, […] of Texas Red-labeled tomato lectin was injected into the left ventricle and circulated for 5 min).

Data set [3] relates to adjuvant arthritis (AA) SD rats. The experiment in a line: Adjuvant arthritis (AA) rat model. The format is in vivo. The conditions noted are these: for Joint swelling / Left and right paw swelling / Clinical score: AA SD rats; for Clinical score: maximum score 16.
In data set [4] the test system is Head and neck cancer tumor cells. Description: MTT proliferation inhibition, head and neck cancer cells. The format is cell-based, human. Set-up: concentration or dose not given beside the values. The conditions noted are these: 48 h. Here is the method: (§1) The activity of mPEG-HM-1 to inhibit the growth of various tumor cells was examined by MTT assay. The tumor cells were cultured to a concentration of 90% or more in a 37° C., 5% CO2 incubator and collected by trypsinization. The cells were resuspended in the culture medium and counted under a microscope to adjust the cell concentration to 2×10^4 cells/mL, the cell suspension was inoculated into a 96-well plate at 100 μL/well and incubated overnight at 37° C. in a 5% CO2 incubator. mPEG-HM-1 was diluted with the culture solution to each predetermined concentration. Docetaxel is diluted to the final concentration with the culture medium. After the cells were fully attached, each dilution was added to a 96-well plate (100 μL/well). The mPEG-HM-1 dilution was added as a drug-administered group, and docetaxel was added as a positive control group, and a culture solution without any drug was used as a negative control group. Incubate for 48 h at 37° C. in a 5% CO2 incubator. 5 mg/mL of MTT was added to a 96-well plate at 20 μL per well, and incubation was continued for 4 hours. The medium was aspirated, dissolved in 150 μL of DMSO per well, and gently mixed by shaking for 10 min. The absorbance was measured at a measurement wavelength of 570 nm and a reference wavelength of 630 nm using a microplate reader, and the rate of growth inhibition (proliferation inhibition, PI) was calculated. The formula is as follows: PI (%)=1−administration group/negative group
(§2) The test was repeated 3 times independently, and the results obtained by the test were expressed as mean±SD, and the test results are shown in Table 15 to Table 18.

The test system of data set [5] is Pancreatic cancer tumor cells. Description: MTT proliferation inhibition, pancreatic cancer cells. The conditions noted are these: 48 h. The format is cell-based, human. On the set-up: concentration or dose not given beside the values. Here is the method:
as §1, §2

The test system of data set [6] is Cervical cancer tumor cells. Description: MTT proliferation inhibition, cervical cancer cells. The format is cell-based, human. Set-up: concentration or dose not given beside the values. The conditions noted are these: 48 h. As for the experimental part: as §1, §2
In data set [7] the test system is Human Umbilical Vein Endothelial Cells (HUVEC). Description: Transwell migration of HUVEC. The format is cell-based. To be noted: 24 h. Here is the method:
10 mg/mL Matrigel was diluted 1:2 with HUVEC-specific medium, spread on a transwell chamber membrane, and air-dried at room temperature. HUVEC cells cultured in logarithmic growth phase were digested with trypsin digest, collected, washed twice with PBS, and resuspended in blank HUVECs-specific medium. The cells were counted under a microscope, and the cell concentration was adjusted to 1×10^5/mL. The test solutions of each group were prepared and diluted to 100 μL with a blank HUVECs-specific medium. The cells were seeded into a transwell chamber at 100 μL per well, and each set of test solution was added to the chamber. The cell culture was stimulated by adding 0.6 mL of endothelial cell culture medium containing 5% fetal bovine serum and 1% ECGS into a 24-well plate, and cultured at 5% CO2 for 24 hour at 37° c. Discard the culture medium in the well, fix it with 90% alcohol at room temperature for 30 minutes, 0.1% crystal violet for 10 min at room temperature, rinse with water, gently wipe off the unsprayed cells in the upper layer with a cotton swab, observe under microscope and select four fields to take pictures. Calculate migration inhibition (MI) according to the formula: […]
Ntest was the number of cell migration in the test group, and Ncontrol was the number of cell migration in the blank control group.
The test was repeated 3 times independently. The results obtained from the test were calculated as mean±SD, and a statistical T test was performed. *P<0.05 was a significant difference, and **P<0.01 was a very significant difference.

The test system of a further data set is Brain tumor cells. Description: MTT proliferation inhibition, brain tumor cells. The class given is cell-based, human. On the set-up: concentration or dose not given beside the values. The conditions noted are these: 48 h. As for the experimental part: as §1, §2
Data set [8] concerns Breast cancer tumor cells. Description: MTT proliferation inhibition, breast cancer cells. The class given is cell-based, human. On the set-up: concentration or dose not given beside the values. The conditions noted are these: 48 h. Here is the method: as §1, §2
A further data set relates to Lung cancer tumor cells. The experiment in a line: MTT proliferation inhibition, lung cancer cells. To be noted: 48 h. The class given is cell-based, human. On the set-up: concentration or dose not given beside the values. As for the experimental part: as §1, §2
Where [9] appears, read: 80 mg/kg subcutaneous once every three days.
Setting [10] is: 10 mg/kg subcutaneous once every three days.
Setting [11] is: 20 mg/kg subcutaneous once every three days.

Marks after values point to notes of the source that are not given here. Where no end group is shown, it is not given here.

Consider “mPEG2-NHS40k-Arg-Gly-Ala-Asp-Arg-Ala-Gly-Gly-Gly-Gly-Arg-Gly-Asp ({mPEG2‑NHS 40 kDa}-RGADRAGGGGRGD) [mPEG2-NHS40k-HM-1]”, for which the “AUC0-∞” value in data set [1] is given as 4579.47 ± 13.52 mg/L/h. This substance returned a CL in [1] of 0.11 ± 0.0883 mL/min/kg. For the same substance, in [1], the “MRT0-∞” value is recorded as 15.27 ± 9.37 h. In addition, in [1], the “T1/2β (half-life)” value worked out at 42.25 ± 0.27 h. For the same substance, the Neovascular clusters area in data set [2] (200 μg intravitreal injection on day 13) was 0.120 ± 0.008 mm^2. The Inhibition rate in [2] (200 μg intravitreal) was 45.92%*. For the same substance, the Joint swelling in [3] (setting [9]) was found to be 0.73 ± 0.14 mm. For the same substance, the “Left and right paw swelling” value in data set [3] (setting [9]) was 3.81 ± 0.63 mm. Further, the Clinical score in data set [3] (setting [9]) amounted to 5.89 ± 1.07. Further, the “rate of growth inhibition” value in data set [4] is 40.36 ± 10.53%; in [5] it was 51.49 ± 16.28%; in data set [6] it was 57.33 ± 14.28%; in the data set with Brain tumor cells, 42.56 ± 11.38%; in data set [8], 49.12 ± 16.19%; with Lung cancer tumor cells, 49.39 ± 16.55%. For the same substance, the “cell migration number (Mean ± SD)” value was found to be 640.05 ± 50.70 in data set [7] (90 μg/mL), 516.99 ± 60.04 in [7] (100 μg/mL), 464.43 ± 46.48 in data set [7] (110 μg/mL) and 584.48 ± 52.28 in data set [7] (120 μg/mL). For the same substance, the “inhibition rate of HUVEC migration” value in data set [7] (90 μg/mL) was 38.26%*; in data set [7] (100 μg/mL) it was 50.13%; in [7] (110 μg/mL), 55.20%; in data set [7] (120 μg/mL), 43.62%*.

As for “mPEG-ALD5k-Arg-Gly-Ala-Asp-Arg-Ala-Gly-Gly-Gly-Gly-Arg-Gly-Asp ({mPEG‑ALD 5 kDa}-RGADRAGGGGRGD) [mPEG-ALD5k-HM-1]”, in [1], the “AUC0-∞” value is 4986.29 ± 10.16 mg/L/h. In data set [1], this substance yielded a CL of 0.843 ± 0.157 mL/min/kg. The “MRT0-∞” value in data set [1] worked out at 8.15 ± 4.21 h. The “T1/2β (half-life)” value in data set [1] was found to be 9.13 ± 0.11 h. In [2] (25 μg intravitreal injection on day 13), the Neovascular clusters area stood at 0.108 ± 0.006 mm^2. Further, the Inhibition rate in [2] (25 μg intravitreal) is 50.98%**. For the same substance, the Joint swelling in [3] (setting [10]) is on record as 0.72 ± 0.17 mm. Moreover, the “Left and right paw swelling” value in [3] (setting [10]) was determined as 3.92 ± 0.67 mm. Moreover, the Clinical score in data set [3] (setting [10]) was 5.91 ± 1.09. In addition, the “rate of growth inhibition” value in [4] worked out at 40.71 ± 11.33%; in [5], 52.19 ± 12.64%; in data set [6], 61.12 ± 18.39%; with Brain tumor cells, 42.15 ± 12.89%; in data set [8], 49.22 ± 11.87%; with Lung cancer tumor cells, 45.76 ± 13.20%. Moreover, the “cell migration number (Mean ± SD)” value in data set [7] (30 μg/mL) is on record as 606.88 ± 58.90; in data set [7] (40 μg/mL), 494.52 ± 52.69; in data set [7] (50 μg/mL), 415.39 ± 44.92; in data set [7] (60 μg/mL) it was 578.69 ± 66.03. The “inhibition rate of HUVEC migration” value was 41.02%* in data set [7] (30 μg/mL), 51.94% in data set [7] (40 μg/mL), 59.63% in data set [7] (50 μg/mL) and 43.76%* in data set [7] (60 μg/mL).

On to “mPEG-ALD10k-Arg-Gly-Ala-Asp-Arg-Ala-Gly-Gly-Gly-Gly-Arg-Gly-Asp ({mPEG‑ALD 10 kDa}-RGADRAGGGGRGD) [mPEG-ALD10k-HM-1]”, for which the “AUC0-∞” value in data set [1] is 5067.98 ± 9.79 mg/L/h. In data set [1], this substance returned a CL of 0.425 ± 0.122 mL/min/kg. Besides, the “MRT0-∞” value in [1] was 11.05 ± 7.68 h. Moreover, the “T1/2β (half-life)” value in data set [1] amounted to 16.46 ± 0.10 h. In data set [2] (50 μg intravitreal injection on day 13), this substance displayed a Neovascular clusters area of 0.085 ± 0.007 mm^2. Besides, the Inhibition rate in [2] (50 μg intravitreal) was found to be 61.75%**. Further, the “inhibition rate of retinal neovascular clusters” value in [2] (OIR mice, 50 μg intravitreal injection, evaluated day 17) amounted to 61.75%. Moreover, in data set [3] (setting [11]), the Joint swelling was 0.68 ± 0.15 mm. Moreover, in data set [3] (setting [11]), the “Left and right paw swelling” value worked out at 3.72 ± 0.54 mm. Further, in data set [3] (setting [11]), the Clinical score was 5.39 ± 1.10. Moreover, in data set [3] (AA rats, subcutaneous, once every three days, vs model group), the “in vivo immune protection effect on adjuvant arthritis model (in words)” value is recorded as “has the most significant effect”. The “rate of growth inhibition” value in data set [4] is recorded as 48.93 ± 12.14%; in data set [5], 79.21 ± 19.14%; in data set [6] it was 83.04 ± 18.74%; in the data set with Brain tumor cells, 58.25 ± 14.02%; in [8], 70.19 ± 17.07%; in the data set with Lung cancer tumor cells, 65.73 ± 16.20%. Further, the “cell migration number (Mean ± SD)” value is 604.31 ± 52.14 in [7] (50 μg/mL), 514.38 ± 42.38 in [7] (60 μg/mL), 417.96 ± 50.48 in data set [7] (70 μg/mL) and 548.54 ± 56.22 in data set [7] (80 μg/mL). Also, the “inhibition rate of HUVEC migration” value in [7] (50 μg/mL) came out at 41.27%*; in data set [7] (60 μg/mL), 50.01%; in data set [7] (70 μg/mL), 59.38%; in data set [7] (80 μg/mL), 46.69%*.

These data come from patent US10869931B2, “Polyethylene glycol-modified angiogenesis inhibitor HM-1 and application thereof” (NANJING ANJI BIOLOGICAL TECHNOLOGY CO.,LTD, priority 2016, dated 2020).
